Laboratory results: publication PMC7961048, “Hierarchized phosphotarget binding by the seven human 14-3-3 isoforms” (Nature Communications, 2021)
Read-outs that look alike come from different tables or passages of the source. Starred links: 1 amine or outer side, 2 acyl side, 3 side chain; linkers in the order of their positions; H or OH if unused. Non-standard residues stand in square brackets, D forms with d. Residues, ends and D or L forms follow the SMILES beside them. *: point of attachment. X1 = O=C(CCCC[C@@H]1SC[C@@H]2NC(=O)N[C@@H]21)NCCCOCCOCCOCCCN*; pT = C[C@@H](OP(=O)(O)O)[C@H](N)C(=O)O; Suc = O=C(CCC(=O)[*:2])[*:1]

Tests used:
Assay type in all cases: binding
14-3-3σ = target: T1, 14-3-3σ (Homo sapiens, UniProt P31947); assay: biochemical
T1 construct: cDNAs encoding other full-length 14-3-3 isoforms β, τ, η, and σ were obtained as codon-optimized; made in house; host or cells: E. coli BL21(DE3)
T1 sequence (P31947 1-248): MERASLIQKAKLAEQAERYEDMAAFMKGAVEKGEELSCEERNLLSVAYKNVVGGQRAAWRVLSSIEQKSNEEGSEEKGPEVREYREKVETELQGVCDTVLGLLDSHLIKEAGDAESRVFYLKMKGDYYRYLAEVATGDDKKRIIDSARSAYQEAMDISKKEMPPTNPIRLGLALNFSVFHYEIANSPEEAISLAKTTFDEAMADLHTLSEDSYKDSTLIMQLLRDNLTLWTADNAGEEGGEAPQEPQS
Procedure: (§1) The seven full-length human 14-3-3 isoforms, produced as fusions to a maltose-binding protein (MBP), were analyzed for their interaction with four phospho-PBMs from E6 proteins of HPV types 16, 18, 33, and 35 belonging to subgroups 1 and 2 (as defined in Supplementary Fig. 1). For comparison, we also measured two non-viral phospho-PBMs originating from protein kinase RSK1[28]. We used a competitive fluorescence polarization (FP) assay that measures the displacement of a fluorescent tracer phosphopeptide (here, derived from the HSPB6 protein) bound beforehand to 14-3-3, by an increasing amount of the peptide of interest.
(§2) For affinity measurements, full-length human 14-3-3 constructs with an N-terminal MBP fusion were used. Plasmids containing the cDNAs of the full-length 14-3-3 isoforms ε, γ, and ζ were received from Prof. Lawrence Banks. cDNAs encoding other full-length 14-3-3 isoforms β, τ, η, and σ were obtained as codon-optimized for E. coli expression synthetic genes from IDT Technologies (Coralville, Iowa, USA). All 14-3-3 isoforms were fused via a three-alanine linker to the C terminus of a mutant MBP carrying the following amino acid substitutions facilitating crystallization: D83A, K84A, K240A, E360A, K363A, and D364A[62]. All resulting clones were verified by sequencing. The MBP-fused proteins were expressed in E. coli BL21(DE3) with IPTG induction. Proteins were affinity purified on an amylose column and were further purified by ion-exchange chromatography (HiTrap Q HP, GE Healthcare). Unfused 14-3-3 isoforms devoid of the flexible C-terminal tails (14-3-3βΔC, 14-3-3τΔC 14-3-3εΔC) were expressed using IPTG induction and purified by subtractive IMAC and SEC[40]. Protein concentrations were determined by UV spectroscopy. The samples were supplemented with glycerol and TCEP before aliquoting and freezing in liquid nitrogen.
(§3) Unless otherwise stated, all phosphopeptide-binding measurements were performed using full-length 14-3-3 proteins fused to the C terminus of MBP, favoring optimal solubility and a standardized parallel purification scheme.
(§4) FP was measured with a PHERAstar (BMG Labtech, Offenburg, Germany) microplate reader by using 485 ± 20 and 528 ± 20 nm band-pass filters (for excitation and emission, respectively). In direct FP measurements, a dilution series of the 14-3-3 protein was prepared in 96-well plates (96-well skirted PCR plate, 4ti-0740, 4titude, Wotton, UK) in a 20 mM HEPES pH 7.5 buffer containing 150 mM NaCl, 0.5 mM TCEP, 0.01% Tween 20, 50 nM fluorescently labeled fpB6 peptide, and 100 μM FSC, if indicated. The volume of the dilution series was 40 μl, which was later divided into three technical replicates of 10 μl upon transferring to 384-well micro-plates (low binding microplate, 384 well, E18063G5, Greiner Bio-One, Kremsmünster, Austria). In total, polarization of the probe was measured at eight different protein concentrations (whereas one contained no protein and corresponded to the free peptide). In competitive FP measurements, the same buffer was supplemented with the protein to achieve a complex formation of 60–80%, based on the direct titration. Then, this mixture was used for creating a dilution series of the unlabeled competitor (i.e., the studied peptides) and the measurement was carried out identically as in the direct experiment.
(§5) All FP experiments were done in triplicates. Analysis of FP experiments were carried out using ProFit, an in-house developed, Python-based fitting program. ProFit utilizes a Monte Carlo approach to take into account experimental variability. It generates hundreds of simulated datasets, based on the experimental data variance and fits direct and competitive measurements in pairs.

14-3-3β = target: T2, 14-3-3β (Homo sapiens, UniProt P31946); assay: biochemical
T2 construct: cDNAs encoding other full-length 14-3-3 isoforms β, τ, η, and σ were obtained as codon-optimized; made in house; host or cells: E. coli BL21(DE3)
T2 sequence (P31946 1-246): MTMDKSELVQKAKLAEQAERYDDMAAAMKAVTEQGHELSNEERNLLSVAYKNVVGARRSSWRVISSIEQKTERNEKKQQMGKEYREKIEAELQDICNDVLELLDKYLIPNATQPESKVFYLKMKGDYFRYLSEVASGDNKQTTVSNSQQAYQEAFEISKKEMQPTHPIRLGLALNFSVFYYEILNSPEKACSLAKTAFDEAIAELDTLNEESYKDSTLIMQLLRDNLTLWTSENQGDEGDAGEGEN
Procedure: as §1, §2, §3, §4, §5

14-3-3τ = target: T3, 14-3-3τ (Homo sapiens, UniProt P27348); assay: biochemical
T3 construct: cDNAs encoding other full-length 14-3-3 isoforms β, τ, η, and σ were obtained as codon-optimized; made in house; host or cells: E. coli BL21(DE3)
T3 sequence (P27348 1-245): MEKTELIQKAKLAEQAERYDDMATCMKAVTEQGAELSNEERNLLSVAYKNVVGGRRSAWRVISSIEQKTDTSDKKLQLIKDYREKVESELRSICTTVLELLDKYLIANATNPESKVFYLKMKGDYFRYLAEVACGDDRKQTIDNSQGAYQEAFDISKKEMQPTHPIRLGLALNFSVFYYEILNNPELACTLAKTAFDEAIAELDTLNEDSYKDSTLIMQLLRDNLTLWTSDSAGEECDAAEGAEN
Procedure: as §1, §2, §3, §4, §5

[1] = target: seven human 14-3-3 isoforms; assay: Affinities averaged or compared across the 14-3-3 family (ΔΔGav, KD ratios, affinity maps)
Source text: Former studies have measured the binding of the seven human 14-3-3 isoforms to unrelated phospho-motifs derived from Cystic Fibrosis Transmembrane Conductance Regulator (CFTR), Leucine-Rich Repeat Kinase 2 (LRRK2), Potassium channel subfamily K members (TASK1/3), C-Raf, the p65 subunit of the NF-κB transcription factor, and from Ubiquitin carboxyl-terminal hydrolase 8 (USP8), representing a wide variety of different 14-3-3-binding motifs, including C-terminal, internal, monovalent, or divalent motifs[40],[44]–[48].
(gray background). The color scale is either based on affinity values or on KD ratios. √ denotes affinities weaker than the limit of quantitation of the experimental assays. b Same map as in a, normalized to the strongest 14-3-3-binding motif. […] Source data are provided as a Source Data file.
All binding data and the obtained fits are provided as Supplementary Data File 1.

| SMILES | Kd (14-3-3σ) [µM] | Binding affinities (KD) of various 14-3-3-binding motifs, 14-3-3σ (14-3-3σ; Figure 4 panel a, unit from the colour scale line, motifs measured in this work) | Kd (14-3-3β) [µM] | Kd (14-3-3τ) [µM] | KD ratios, compared to LRRK2 pS910/pS935, 14-3-3β ([1]; Figure 4 panel b, 14-3-3β) | KD ratios, compared to LRRK2 pS910/pS935, 14-3-3γ ([1]; Figure 4 panel b, 14-3-3γ) | KD ratios, compared to LRRK2 pS910/pS935, 14-3-3ζ ([1]; Figure 4 panel b, 14-3-3ζ) | KD ratios, compared to LRRK2 pS910/pS935, 14-3-3η ([1]; Figure 4 panel b, 14-3-3η) | KD ratios, compared to LRRK2 pS910/pS935, 14-3-3τ ([1]; Figure 4 panel b, 14-3-3τ) | KD ratios, compared to LRRK2 pS910/pS935, average ([1]; Figure 4 panel b, average over the isoforms) | KD ratios, compared to 14-3-3γ, 14-3-3β ([1]; Figure 4 panel c, 14-3-3β) | KD ratios, compared to 14-3-3γ, 14-3-3γ ([1]; Figure 4 panel c, 14-3-3γ) | KD ratios, compared to 14-3-3γ, 14-3-3ζ ([1]; Figure 4 panel c, 14-3-3ζ) | KD ratios, compared to 14-3-3γ, 14-3-3η ([1]; Figure 4 panel c, 14-3-3η) | KD ratios, compared to 14-3-3γ, 14-3-3τ ([1]; Figure 4 panel c, 14-3-3τ) | ΔΔGav (average 14-3-3 binding free energy difference) relative to p35E6 ([1]; averaged over 14-3-3 isoforms, 295 K) | KD ratio relative to p35E6 ([1]; corresponds to ΔΔGav averaged over 14-3-3 isoforms) [fold] | Binding affinities (KD) of various 14-3-3-binding motifs, 14-3-3σ (14-3-3σ) | Binding affinities (KD) of various 14-3-3-binding motifs, 14-3-3β (14-3-3β) | binding to 14-3-3 proteins ([1]; competitive FP, seven MBP-fused full-length 14-3-3 isoforms, result in words) |
| --- | --- | --- | --- | --- | --- | --- | --- | --- | --- | --- | --- | --- | --- | --- | --- | --- | --- | --- | --- | --- |
| CC(C)[C@H](NC(=O)[C@H](CCC(=O)O)NC(=O)[C@@H](NC(=O)[C@H](CCC(=O)O)NC(=O)[C@H](CCCNC(=N)N)NC(=O)[C@H](CCCNC(=N)N)NC(=O)[C@H](CCCNC(=N)N)NC(=O)[C@@H]1CCCN1C(=O)[C@H](CCCCN)NC(=O)[C@H](CO)NC(=O)CCC(=O)NCCCOCCOCCOCCCNC(=O)CCCC[C@@H]1SC[C@@H]2NC(=O)N[C@@H]21)[C@@H](C)OP(=O)(O)O)C(=O)O [pHPV35E6T-6R] ({X1-Suc}-SKPRRRE[pT]EV-OH) | > 300 | √ | 179 ± 29 | 194 ± 37 | 8483 | 22250 | 28958 | 17708 | 20421 | 20000 | 2.51 | 1.00 | 1.95 | 1.19 | 2.72 | –1.1 ± 0.5 kJ/mol | 1.5 | – | – | – |
| CC(C)[C@H](NC(=O)[C@H](CCC(=O)O)NC(=O)[C@@H](NC(=O)[C@H](CCC(=O)O)NC(=O)[C@H](CCCNC(=N)N)NC(=O)[C@H](CCCNC(=N)N)NC(=O)[C@@H](NC(=O)[C@@H]1CCCN1C(=O)[C@H](CCCCN)NC(=O)[C@H](CO)NC(=O)CCC(=O)NCCCOCCOCCOCCCNC(=O)CCCC[C@@H]1SC[C@@H]2NC(=O)N[C@@H]21)[C@@H](C)O)[C@@H](C)OP(=O)(O)O)C(=O)O [pHPV35E6] ({X1-Suc}-SKPTRRE[pT]EV-OH) | > 300 | – | > 300 | 233 ± 14 | – | – | – | – | – | – | – | – | – | – | – | – | – | √ | √ | detectably bound |
